#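 Following 48 hours of exposure in 96-well plates, responses at five concentrations were used to interpolate endpoints linearly. TGI marks complete inhibition of growth.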 *1 amine or outer side, *2 acyl side, *3 side chain or, on linkers, in order; H or OH if unused. Where a SMILES comes first, the peptide text is derived from it. [ ]: non-standard residue; d: D form. X32 = C[C@H](N[*:1])C(=O)C(C)(C)C(=O)[*:2]; Hmpa(2S,3S) = CC[C@H](C)[C@H](O)C(=O)O; NMeY = CN[C@@H](Cc1ccc(O)cc1)C(=O)O; NMeL = CN[C@@H](CC(C)C)C(=O)O; NMeV = CN[C@H](C(=O)O)C(C)C; βAla = NCCC(=O)O
# Columns and labels:
# Assay in all cases: NCI-60 cell line screen, 48 h
# COLO 205 colon = test system: COLO 205 colon
# HCT-116 colon = test system: HCT-116 colon
# A549 NSCLC = test system: A549 NSCLC
# NCI/ADR-RES ovarian = test system: NCI/ADR-RES ovarian
# MALME-3M melanoma = test system: MALME-3M melanoma
# MDA-N = test system: MDA-N
# A498 renal = test system: A498 renal
# NCI-H226 lung = test system: NCI-H226 lung
# NCI-H522 lung = test system: NCI-H522 lung
# T-47D breast = test system: T-47D breast
# HOP-92 NSCLC = test system: HOP-92 NSCLC
# NCI-H23 lung = test system: NCI-H23 lung
smiles,measurement,setting,value
CCC(=O)Nc1ccc(N2C(=O)C(Cl)C2c2ccc(SC)cc2)cc1 (stereo not given),TGI,COLO 205 colon,> 100 µM
same,TGI,HCT-116 colon,> 100 µM
same,TGI,A549 NSCLC,> 100 µM
same,TGI,NCI/ADR-RES ovarian,> 100 µM
same,TGI,MALME-3M melanoma,> 100 µM
same,TGI,MDA-N,> 100 µM
same,TGI,A498 renal,> 100 µM
same,TGI,NCI-H226 lung,98.1 µM
same,TGI,NCI-H522 lung,> 100 µM
same,TGI,T-47D breast,> 100 µM
same,TGI,HOP-92 NSCLC,> 100 µM
same,TGI,NCI-H23 lung,> 100 µM
"CC[C@H](C)[C@@H]1OC(=O)CCNC(=O)[C@@H](C)NC(=O)C(C)(C)C(=O)[C@H](C)NC(=O)[C@H](Cc2ccc(OC)cc2)N(C)C(=O)[C@H](C(C)C)N(C)C(=O)CNC(=O)[C@H](CC(C)C)N(C)C(=O)CNC1=O (cyclo(G[NMeL]G[NMeV][NMeY](Me)[X32][dA][βAla][Hmpa(2S,3S)]))",TGI,COLO 205 colon,0.0545 µM
same,TGI,HCT-116 colon,> 27.8 µM
same,TGI,A549 NSCLC,> 50 µM
same,TGI,NCI/ADR-RES ovarian,> 50 µM
same,TGI,MALME-3M melanoma,10.3 µM
same,TGI,MDA-N,> 31.8 µM
same,TGI,A498 renal,5.91 µM
same,TGI,NCI-H226 lung,> 38.2 µM
same,TGI,NCI-H522 lung,> 50 µM
same,TGI,T-47D breast,> 50 µM
same,TGI,HOP-92 NSCLC,4.61 µM
same,TGI,NCI-H23 lung,> 50 µM
CC(=O)Nc1c(C)cc2c(nc3n2CCC3O)c1[N+](=O)[O-] (stereo not given),TGI,COLO 205 colon,> 100 µM
same,TGI,HCT-116 colon,> 100 µM
same,TGI,A549 NSCLC,> 100 µM
same,TGI,NCI/ADR-RES ovarian,> 100 µM
same,TGI,MALME-3M melanoma,> 100 µM
same,TGI,MDA-N,> 100 µM
same,TGI,A498 renal,> 100 µM
same,TGI,NCI-H226 lung,> 100 µM
same,TGI,NCI-H522 lung,> 100 µM
same,TGI,T-47D breast,> 100 µM
same,TGI,HOP-92 NSCLC,> 100 µM
same,TGI,NCI-H23 lung,> 100 µM
OCCNCNc1nc(NCNCCO)nc(N(CNCCO)CNCCO)n1,TGI,COLO 205 colon,30.8 µM
same,TGI,HCT-116 colon,41.5 µM
same,TGI,A549 NSCLC,> 78.2 µM
same,TGI,NCI/ADR-RES ovarian,54 µM
same,TGI,MALME-3M melanoma,33.2 µM
same,TGI,MDA-N,38.4 µM
same,TGI,A498 renal,62 µM
same,TGI,NCI-H226 lung,47.1 µM
same,TGI,NCI-H522 lung,41.3 µM
same,TGI,T-47D breast,61.1 µM
same,TGI,HOP-92 NSCLC,51.1 µM
same,TGI,NCI-H23 lung,46.1 µM
CCOC(=O)NC(Nc1ccc(C(=O)OCC)cc1)(C(F)(F)F)C(F)(F)F,TGI,COLO 205 colon,> 100 µM
same,TGI,HCT-116 colon,> 100 µM
same,TGI,A549 NSCLC,> 100 µM
same,TGI,NCI/ADR-RES ovarian,> 100 µM
same,TGI,MALME-3M melanoma,> 100 µM
same,TGI,MDA-N,> 100 µM
same,TGI,A498 renal,> 100 µM
same,TGI,NCI-H226 lung,> 100 µM
same,TGI,NCI-H522 lung,> 100 µM
same,TGI,T-47D breast,> 100 µM
same,TGI,HOP-92 NSCLC,> 100 µM
same,TGI,NCI-H23 lung,> 100 µM
N#Cc1cnc(N)nc1NCC1(CO)CC(CCc2ccccc2)C1 (stereo not given),TGI,COLO 205 colon,> 100 µM
same,TGI,HCT-116 colon,> 100 µM
same,TGI,A549 NSCLC,> 100 µM
same,TGI,NCI/ADR-RES ovarian,> 100 µM
same,TGI,MALME-3M melanoma,> 100 µM
same,TGI,MDA-N,> 100 µM
same,TGI,A498 renal,> 100 µM
same,TGI,NCI-H226 lung,> 100 µM
same,TGI,NCI-H522 lung,> 100 µM
same,TGI,T-47D breast,> 20.5 µM
same,TGI,HOP-92 NSCLC,> 100 µM
same,TGI,NCI-H23 lung,> 100 µM
CO/N=C(\C)c1cccc(Nc2c3ccccc3nc3occc23)c1,TGI,COLO 205 colon,17.6 µM
same,TGI,HCT-116 colon,21.2 µM
same,TGI,A549 NSCLC,57.3 µM
same,TGI,NCI/ADR-RES ovarian,15.6 µM
same,TGI,MALME-3M melanoma,34.5 µM
same,TGI,MDA-N,15.8 µM
same,TGI,A498 renal,38.9 µM
same,TGI,NCI-H226 lung,33.7 µM
same,TGI,NCI-H522 lung,7.64 µM
same,TGI,T-47D breast,28.8 µM
same,TGI,HOP-92 NSCLC,43.2 µM
same,TGI,NCI-H23 lung,20.9 µM
O=c1/c(=C/c2ccc(-c3ccc(Cl)cc3Cl)o2)sc2n1[C@@H](c1ccc(Cl)cc1)C=C(c1cc(F)c(Cl)cc1Cl)N=2,TGI,COLO 205 colon,> 100 µM
same,TGI,HCT-116 colon,> 100 µM
same,TGI,A549 NSCLC,> 100 µM
same,TGI,NCI/ADR-RES ovarian,> 100 µM
same,TGI,MALME-3M melanoma,> 100 µM
same,TGI,MDA-N,> 100 µM
same,TGI,A498 renal,4.71 µM
same,TGI,NCI-H226 lung,> 100 µM
same,TGI,NCI-H522 lung,> 100 µM
same,TGI,T-47D breast,> 100 µM
same,TGI,HOP-92 NSCLC,61.7 µM
same,TGI,NCI-H23 lung,> 100 µM
C=CC(Cl)(CBr)CCC(Br)C(C)(C)Cl (stereo not given),TGI,COLO 205 colon,29.5 µM
same,TGI,HCT-116 colon,25.4 µM
same,TGI,A549 NSCLC,89.3 µM
same,TGI,NCI/ADR-RES ovarian,49.8 µM
same,TGI,MALME-3M melanoma,35.8 µM
same,TGI,MDA-N,32.4 µM
same,TGI,A498 renal,27.2 µM
same,TGI,NCI-H226 lung,> 100 µM
same,TGI,NCI-H522 lung,24.4 µM
same,TGI,T-47D breast,39.6 µM
same,TGI,HOP-92 NSCLC,39.8 µM
same,TGI,NCI-H23 lung,31.3 µM
CCC(C#N)NCc1cccc(CNC(C#N)CC)c1 (stereo not given),TGI,COLO 205 colon,> 100 µM
same,TGI,HCT-116 colon,> 100 µM
same,TGI,A549 NSCLC,> 100 µM
same,TGI,NCI/ADR-RES ovarian,> 100 µM
same,TGI,MALME-3M melanoma,> 100 µM
same,TGI,MDA-N,> 100 µM
same,TGI,A498 renal,> 100 µM
same,TGI,NCI-H226 lung,> 100 µM
same,TGI,NCI-H522 lung,> 100 µM
same,TGI,T-47D breast,> 100 µM
same,TGI,HOP-92 NSCLC,> 100 µM
same,TGI,NCI-H23 lung,> 100 µM
CCCCCCCCCCNC(=O)CCC(NC(=O)c1ccc(N(C)Cc2cnc3nc(N)nc(N)c3n2)cc1)C(=O)NCCCCCCCCCC (stereo not given),TGI,COLO 205 colon,15.2 µM
same,TGI,HCT-116 colon,14 µM
same,TGI,A549 NSCLC,> 100 µM
same,TGI,NCI/ADR-RES ovarian,> 100 µM
same,TGI,MALME-3M melanoma,37.7 µM
same,TGI,MDA-N,21.9 µM
same,TGI,A498 renal,73.5 µM
same,TGI,NCI-H226 lung,59.3 µM
same,TGI,NCI-H522 lung,16.6 µM
same,TGI,T-47D breast,40.3 µM
same,TGI,HOP-92 NSCLC,27.1 µM
same,TGI,NCI-H23 lung,54.4 µM
O=[N+]([O-])c1ccc(N/N=C/c2ccc(OCCCCCCCCCCCO)cc2)c([N+](=O)[O-])c1,TGI,COLO 205 colon,6.24 µM
same,TGI,HCT-116 colon,> 43.7 µM
same,TGI,A549 NSCLC,> 38.9 µM
same,TGI,NCI/ADR-RES ovarian,9.51 µM
same,TGI,MALME-3M melanoma,4.61 µM
same,TGI,MDA-N,13 µM
same,TGI,A498 renal,> 100 µM
same,TGI,NCI-H226 lung,37.3 µM
same,TGI,NCI-H522 lung,9.44 µM
same,TGI,T-47D breast,> 100 µM
same,TGI,HOP-92 NSCLC,14.6 µM
same,TGI,NCI-H23 lung,45.8 µM
N#Cc1c(N)nc(Sc2ccccc2N)c(C#N)c1-c1ccc(Cl)cc1,TGI,COLO 205 colon,> 100 µM
same,TGI,HCT-116 colon,> 72.6 µM
same,TGI,A549 NSCLC,> 75.2 µM
same,TGI,NCI/ADR-RES ovarian,35.5 µM
same,TGI,MALME-3M melanoma,27.7 µM
same,TGI,MDA-N,40.2 µM
same,TGI,A498 renal,16.9 µM
same,TGI,NCI-H226 lung,> 100 µM
same,TGI,NCI-H522 lung,35.8 µM
same,TGI,T-47D breast,4.24 µM
same,TGI,HOP-92 NSCLC,53.1 µM
same,TGI,NCI-H23 lung,> 63 µM
CC(=O)OCC1OC(n2c(-c3ccc(C)cc3)cc(-c3ccccc3)c(C#N)c2=S)C(OC(C)=O)C(OC(C)=O)C1OC(C)=O (stereo not given),TGI,COLO 205 colon,> 100 µM
same,TGI,HCT-116 colon,> 100 µM
same,TGI,A549 NSCLC,> 100 µM
same,TGI,NCI/ADR-RES ovarian,> 100 µM
same,TGI,MALME-3M melanoma,> 100 µM
same,TGI,MDA-N,> 100 µM
same,TGI,A498 renal,> 100 µM
same,TGI,NCI-H226 lung,> 100 µM
same,TGI,NCI-H522 lung,> 100 µM
same,TGI,T-47D breast,> 100 µM
same,TGI,HOP-92 NSCLC,> 100 µM
same,TGI,NCI-H23 lung,> 100 µM
COC(=O)C(CCSC)NC(=O)Cc1ccc(C(=O)c2ccccc2)cc1 (stereo not given),TGI,COLO 205 colon,> 100 µM
same,TGI,HCT-116 colon,> 100 µM
same,TGI,A549 NSCLC,> 100 µM
same,TGI,NCI/ADR-RES ovarian,91.5 µM
same,TGI,MALME-3M melanoma,> 100 µM
same,TGI,MDA-N,35.1 µM
same,TGI,A498 renal,> 100 µM
same,TGI,NCI-H226 lung,> 100 µM
same,TGI,NCI-H522 lung,> 100 µM
same,TGI,T-47D breast,> 100 µM
same,TGI,HOP-92 NSCLC,> 100 µM
same,TGI,NCI-H23 lung,> 100 µM

# — PubChem BioAssay (NCI)
